Laboratory results reported in patent US20200131473A1, “METHOD OF GENERATING 2 CELL-LIKE STEM CELLS” (IFOM FONDAZIONE ISTITUTO FIRC DI ONCOLOGIA MOLECOLARE, priority 2017, published 2020).

How the values were obtained:
[1] = test system: E14 mouse ESCs; assay: Drop-seq single cell transcriptional profiling of E14 ESCs; format: cell-based
Protocol: ESCs from CNTL, APH (6 μM) and APH-ATRi experimental conditions were resuspended in PBS-BSA and processed with a microfluidic device according to the DropSeq Laboratory Protocol V3.1 from McCarroll's Lab website [http://mccarrolllab.com/dropseq/l]. For each condition, 3 distinct aliquots of collected emulsion, each containing 4000 beads underwent reverse transcription (RT) and fragment library preparation using Illumina Nextera XT Library Prep Kit. A distinct barcode was used for each library to allow subsequent demultiplexing of sequencing reads. mRNA sequencing was performed using an Illumina HiSeq2000 instrument, library fragments were sequenced at 50 base pairs (bp) in PE mode. Sequencing reads were aligned to UCSC Mouse Reference Genome version mm10 using STAR (version 2.5.3a), and processed according to DropSeq Alignment Cookbook V1.2 to generate a digital expression matrix of STAMPs (cells) for each experimental condition, which was then furtherly analyzed in the RStudio environment (R version 3.3.3) using Seurat package V2.0 from Satija Lab [http://satijalab.org/seurat/]. Seven-hundred most expressed cells were selected in each condition; genes expressed in less than 3 cells and cells expressing less than 200 genes were pruned from the dataset. Data from CNTL and APH conditions (1399 cells) or CNTL, APH and APH-ATRi conditions (2096 cells) were merged to generate two datasets, which were log normalised and scaled. Expression mean and variance to mean ratio (Log VMR>0.5) were used to estimate data dispersion and select variable genes across the dataset. Respectively 2614 and 2768 genes (in the 2-conditions and 3-conditions datasets) were used in principal component analysis (PCA) to identify the appropriate number of components to include in data modeling. Top 15 components were selected to explain dataset complexity. A shared nearest neighbor (SNN) graph and smart local moving algorithm was used to perform cells clustering; t-SNE (t-stochastic neighbour embedding) analysis was used to reduce (PCA) dimensionality and generate plots of cells distribution.

[2] = test system: mESC lines E14 and R1; assay: Whole gene expression profiling (microarray) of mESC lines E14 and R1; format: cell-based, mouse
Protocol: The quality of total RNA was first assessed using an Agilent Bioanalyzer 2100 (Agilent Technologies, Palo Alto, Calif.). Biotin-labeled cDNA targets were synthesized starting from 150 ng of total RNA. Double stranded cDNA synthesis and related cRNA was performed with GeneChip® WT Plus Kit (Affymetrix, Santa Clara, Calif.). With the same kit was synthesized the sense strand cDNA before to be fragmented and labeled. […] Each eukaryotic GeneChip® probe array contains probe sets for several B. subtilis genes that are absent in the samples analyzed (lys, phe, thr, and dap). This Poly-A RNA Control Kit contains in vitro synthesized, polyadenylated transcripts for these B. subtilis genes that are pre-mixed at staggered concentrations to allow GeneChip® probe array users to assess the overall success of the assay.
Hybridization was performed using the GeneAtlas™ Hybridization, Wash and Stain Kit. […] Targets were diluted in hybridization buffer at a concentration of 0.05 μg/ul, denatured at 99° C. for 5 minutes, incubated at 45° C. for 5 minutes and centrifuged at 5,000 rpm for 1 minute. The Array Strip is then moved to a hybridization tray, which contains the hybridization cocktails. A single Gene 2.1 PEG Array Strip is hybridized with four different biotin-labeled targets. Hybridizations were performed for 20 hours at 48° C. in the GeneAtlas™ Hybridization Station. The Array Strips were washed and stained in the GeneAtlas™ Personal Fluidics Station. At the end of this procedure the array strips were placed into the imaging tray, which contains the Array Holding buffer.
The array strips were imaged using the GeneAtlas™ Imaging Station. Affymetrix GeneAtlas™ Command Console software was used to acquire the Array Strip images and […].
The CAMERA gene set enrichment p-values were calculated using the limma package and the camera function 30.
In the GSVA based enrichment analysis, we used the MsigDB gene sets, and transformed the individual gene expression values into gene set expression values with the GSVA package 32. We calculated the gene set differential expression as in the gene level differential expression analysis, only skipping the RMA normalization step.

SMILES	number of APH-induced 2C-like gene expressing cells (Zscan4d+, Gm8300+) ([1]; APH plus ATRi)	number of RS-induced cells in the newly emerging cluster ([1]; APH plus ATRi)	APH induced 2C-like genes which reverted their expression level ([2]; 31 out of 43, inhibitor added after APH) [%]	two placenta-related gene categories upon ATR inhibition ([2]; APH plus inhibitor)	DNA repair signaling pathway (geneset enrichment analysis) ([2]; inhibitor added after APH-induced replication stress)	small cell population (cluster 4, 2C-like) in single cell profiling ([1]; E14 ESCs in LIF plus 2i, APH 6 μM)	downregulated genes ([2]; APH treatment, E14 and R1) [genes]	upregulated genes with more than two-fold changes ([2]; APH treatment, E14 and R1) [genes]	DEGs overlapping with totipotency specific genes ([2]; APH treatment, 43 out of 201, compared with published datasets) [%]	two placenta-related gene categories (MSigDB gene-sets analysis) ([2]; APH vs CNTL)
CNCc1ccc(-c2cc(-c3nc(-c4ccc(S(=O)(=O)C(C)C)cc4)cnc3N)on2)cc1 [VE 822]	marked reduction	significantly reduced	72	robustly suppressed	robust silencing	–	–	–	–	–
C[C@@]1(CO)[C@H](O)CC[C@@]2(C)[C@H]1CC[C@H]1C[C@@H]3C[C@@]12CC[C@]3(O)CO [APH, aphidicolin]	–	–	–	–	–	significantly increased	21	193	17	strong and highly significant enrichment
